Assay results: PMC3842960, “Natural Stilbenoids Isolated from Grapevine Exhibiting Inhibitory Effects against HIV-1 Integrase and Eukaryote MOS1 Transposase In Vitro Activities” (PLoS ONE, 2013)

Tests used:
HIV-1 IN [1] = target: T1, HIV-1 IN (Human immunodeficiency virus type 1 group M subtype B, UniProt P04585); assay: HIV-1 IN in vitro concerted integration assay (processed or unprocessed donor DNA); settings: for effect on integration from the processed DNA: processed donor DNA (strand transfer); for inhibition of integration from the unprocessed substrate: unprocessed donor DNA; for differential effect between reactions: strand transfer / processed donor versus 3′processing / unprocessed donor: comparison of concerted integration and 3′processing results
HIV-1 IN [2] = target: T1, HIV-1 IN; assay: HIV-1 IN 3′processing assay; format: biochemical; settings: 600 nM IN; increasing concentrations
293T cells = settings: 72 hours treatment, 1–50 µM, MTS
MOS1 = target: T2, MOS1 (Drosophila mauritiana, UniProt Q7JQ07); assay: MOS1 in vitro activities, overall statements of the discussion; format: biochemical, D. mauritiana; settings: in vitro assays of MOS1 activities; discussion
T2 construct: involving the full-length Mos1 transposase (MOS1) was recently solved; made in house
Experimental: (§1) In vitro transposition reactions were performed using pBC-3T3 as both the donor DNA and the target, as previously described. Briefly, the basic transposition reaction mixtures contained 10 mM Tris-HCl (pH 9), 50 mM NaCl, 20 mM MgCl2, 0.5 mM EDTA, 5% glycerol, 5 ng/ml BSA, 600 ng pBC-3T3, and 80 nM purified MBP-MOS1 (added last) in a volume of 20 µl. Inhibitors (25 or 10 µM, as specified) or DMSO (2%) were added to the reaction mixtures before the transposase. The reactions were allowed to proceed for 30 min at 30°C. After phenol-chloroform extraction and ethanol precipitation, 10% of the reaction mixture was transformed in electro-competent JM109 E. coli (2 mm cuvette, 1.5 kV in a MicroPulser™BioRad). Appropriate dilutions of each reaction mixture were plated on LB-tetracycline (12.5 µg/ml) agar and LB-chloramphenicol (80 µg/ml) agar to score the transposition rate. The transposition rate was the number of Tet^R colonies divided by the number of Chloram^R plus Tet^R colonies. Each condition was done at least three times in independent experiments.
Basic excision reaction mixtures contained 10 mM Tris-HCl (pH 9), 50 mM NaCl, 20 mM MgCl2, 0.5 mM EDTA, 0.5 mM DTT, 100 ng BSA, 600 ng of super-coiled pBC-3T3, and 80 nM MBP-MOS1 (added last) in a volume of 20 µl. Molecules (25 or 10 µM, as specified) or DMSO (2%) were added to the reaction mixtures before the transposase. The reactions were allowed to proceed at 30°C for 30 min before 2 µl of stop solution (loading buffer) were added. The reaction mixtures were then incubated at 65°C for 10 min. Each reaction was analysed by overnight electrophoresis at 2.7 V/cm on a TAE-buffered 1% agarose gel with ethidium bromide (0.3 mg/ml). After electrophoresis, the gel was photographed on a transilluminator. ImageGauge 4.22 software (Fujifilm) was used to quantify the bands. Each condition was tested at least twice.
These assays were performed using pre-cleaved 3′ITRs (PC-ITR), i.e. ITRs in the configuration expected after excision. Double-strand ITRs were obtained by annealing equimolar amounts of 70-NTS-PN (5′[…]3′) and 70-TS-PC (5′[…]3′) single-strand oligonucleotides. Prior to annealing, the transferred strand (70-TS-PC) was 5′-end labelled using T4 polynucleotide kinase (Promega) and γ-^32P-ATP following the manufacturer's instructions. Oligonucleotides were provided by Eurofins MWG Biotech (Germany) or Eurogentec (Belgium). Reaction mixtures containing 10 mM Tris-HCl (pH 9), 50 mM NaCl, 1 mM DTT, 5% glycerol, 100 ng BSA, 100 nM of labelled PC-ITR and 100 nM MBP-MOS1 in a final volume of 20 µl were incubated at 30°C for 30 min. The pBC plasmid (which contained the cat gene, a hot-spot for Mos1 insertion) was then added to 30 ng/µL along with 5 mM MgCl2. Molecules (25 or 10 µM, as specified) or DMSO (2%) were added to the reaction mixtures along with the target DNA to estimate their effect on integration. Reactions were carried out for 3 hours at 30°C. 0.1 mg/ml proteinase K and 0.1% SDS were added to stop the reaction. DNA products were purified by phenol-chloroform extraction and ethanol precipitated using standard techniques. DNA products were resuspended in DNA loading buffer, then separated onto a 1% agarose gel in 1X TAE (Tris Acetate EDTA) buffer. The gel was dried onto a nitrocellulose membrane (Hybond N+, GE Healthcare), scanned using a Storm, and analysed with ImageQuant software. Signals were quantified using ImageQuant software. Efficiency of integration was calculated as the intensity of the integration signal divided by the intensity of free target signal plus integration signal. Each condition was tested at least twice.
All molecules were also tested in in vitro assays reproducing integration and excision reactions catalysed by MOS1. […] In contrast, E-resveratrol and E-ε-viniferin glucoside, which act more specifically on HIV-1 3′processing reaction, and E-piceid and E-pterostilbene, which is more efficient on the integration reaction, were not active on MOS1.

Mos1 transposase (MOS1) = target: T3, Mos1 transposase (MOS1) (Drosophila mauritiana, UniProt Q7JQ07); assay: MOS1 in vitro transposition assay (genetic hop experiment); format: biochemical, D. mauritiana; settings: for inhibition at 25 µM: DMSO control as reference, read-out: inhibition of the whole MOS1 transposition activity
T3 construct: involving the full-length Mos1 transposase (MOS1) was recently solved; made in house
Experimental: The wild type Mos1 transposase (MOS1: 345 amino acids) was produced and purified as a fusion protein linked to the maltose-binding protein by using the pMal-c2 system (New England Biolabs) and following the manufacturer's instructions.
as §1
To identify the natural stilbenes active on MOS1, the 17 molecules were tested using an in vitro genetic “hop” experiment, which is the most sensitive test available as yet. Purified MOS1 was incubated with the pBC-3T3 plasmid, which was used both as the transposon donor and the target plasmid. This plasmid contains the pBR322 tetracycline resistance gene (without promoter) framed by two Mos1 ITRs. This reconstitutes a pseudo-Mos1 element named 3T3. We took advantage of the fact that the cat gene (present in the pBC backbone) is a hotspot for Mos1 integration. […] Transposition events were recovered by bacterial transformation with selection for tetracycline resistance, as a gain-of-function landmark for transposition. […] Controls correspond to assays performed without molecule but with DMSO, which is routinely used as the solvent. […] To confirm the efficiency of the six molecules, they were similarly assayed at 10 µM ( figure 6B ). Since they appeared to be still active at 10 µM, they were further characterized in order to identify the targeted step of the transposition cycle.

[3] = read-out: inhibition of concerted integration

T3 sequence (Q7JQ07 whole entry): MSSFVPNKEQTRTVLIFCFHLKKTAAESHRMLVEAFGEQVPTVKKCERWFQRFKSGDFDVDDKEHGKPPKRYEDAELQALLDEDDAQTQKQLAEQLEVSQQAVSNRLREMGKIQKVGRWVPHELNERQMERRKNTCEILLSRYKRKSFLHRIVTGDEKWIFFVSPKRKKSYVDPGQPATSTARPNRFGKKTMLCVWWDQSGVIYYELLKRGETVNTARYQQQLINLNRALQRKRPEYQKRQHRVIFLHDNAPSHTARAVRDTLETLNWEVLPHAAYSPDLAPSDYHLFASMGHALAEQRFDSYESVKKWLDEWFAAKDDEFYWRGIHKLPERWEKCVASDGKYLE
T2 sequence (Q7JQ07 whole entry): as above

| Compound | inhibition at 10 µM (HIV-1 IN [1]; [3]) | inhibitory effect on 3′processing (HIV-1 IN [2]) | activity on MOS1 (MOS1) | differential effect between reactions: strand transfer / processed donor versus 3′processing / unprocessed donor (HIV-1 IN [1]) | inhibition of concerted integration from processed and unprocessed donor (HIV-1 IN [1]; increasing concentrations) | other results |
| --- | --- | --- | --- | --- | --- | --- |
| Oc1ccc(/C=C/c2cc(O)cc3c2[C@H](c2cc(O)cc(O)c2)[C@@H](c2ccc(O)cc2)O3)cc1 [(+)-E-ε-viniferin] | < 5% |  |  |  |  |  |
| Oc1ccc(/C=C/c2cc(O)cc3c2[C@@H](c2cc(O)cc4c2[C@H](c2cc(O)cc(O)c2)[C@@H](c2ccc(O)cc2)O4)[C@H](c2ccc(O)cc2)O3)cc1 [E-miyabenol C] | < 5% |  |  |  |  |  |
| Oc1cc(O)cc(/C=C/c2ccc(O)c(O)c2)c1 [E-piceatannol] |  | showed an inhibitory effect |  |  |  | cytotoxicity, cell survival (293T cells): showed some toxicity; effect on integration from the processed DNA (HIV-1 IN [1]; increasing concentrations): without having any detectable effect; inhibition of integration from the unprocessed substrate (HIV-1 IN [1]; increasing concentrations): inhibit integration from the unprocessed substrate |
| OCC1OC(Oc2cc(O)cc(C=Cc3ccc(O)cc3)c2)C(O)C(O)C1O (stereo not drawn) [E-piceid] |  |  | not active | more active on strand transfer reaction than | inhibited both activities |  |
| Oc1ccc(/C=C/c2cc(O)cc(O)c2)cc1 [E-resveratrol] |  | showed an inhibitory effect | not active | reaction than on integration |  | effect on integration from the processed DNA (HIV-1 IN [1]; increasing concentrations): without having any detectable effect; inhibition of integration from the unprocessed substrate (HIV-1 IN [1]; increasing concentrations): inhibit integration from the unprocessed substrate |
| Oc1ccc(/C=C/c2cc(O)cc3c2[C@H](c2cc(O)cc(O)c2)[C@@H](c2ccc(O)c(O)c2)O3)cc1 [E-scirpusin A] |  | low |  |  | inhibited both activities |  |
| OCC1OC(Oc2cc(C=Cc3ccc(O)cc3)c3c(c2)OC(c2ccc(O)cc2)C3c2cc(O)cc(O)c2)C(O)C(O)C1O (stereo not drawn) [E-ε-viniferin glucoside] |  | showed an inhibitory effect | not active | reaction than on integration |  | cytotoxicity, cell survival (293T cells): showed some toxicity; effect on integration from the processed DNA (HIV-1 IN [1]; increasing concentrations): without having any detectable effect; inhibition of integration from the unprocessed substrate (HIV-1 IN [1]; increasing concentrations): inhibit integration from the unprocessed substrate |
| Oc1ccc([C@@H]2c3c(O)cc(O)cc3[C@H]3c4c(cc(O)cc4[C@H]2O)O[C@@H]3c2ccc(O)cc2)cc1 [ampelopsin A] | < 5% |  |  |  |  |  |
| Oc1ccc([C@H]2c3c(O)cc(O)cc3[C@H]3c4c(cc(O)cc4C2C2c4cc(O)cc5c4[C@H](c4cc(O)cc(O)c4[C@@H]2c2ccc(O)cc2)[C@@H](c2ccc(O)cc2)O5)O[C@@H]3c2ccc(O)cc2)cc1 (stereo partly drawn) [isohopeaphenol] | < 5% |  | not active |  |  |  |
| Oc1ccc(C(O)C2c3cc(O)cc(O)c3[C@H](c3ccc(O)cc3)[C@H]2c2cc(O)cc(O)c2)cc1 (stereo partly drawn) [leachianol G] |  | low | also active against MOS1 activities | more active on strand transfer reaction than | inhibited both activities | activity against MOS1 in transposition assay (Mos1 transposase (MOS1); 10 µM): still active; inhibition at 25 µM (Mos1 transposase (MOS1); 25 µM): > 50%; inhibitory efficiency compared with raltegravir (HIV-1 IN [1]; concerted integration, increasing concentrations): inhibitory efficiencies close to raltegravir; inhibition at 50 µM (HIV-1 IN [1]; [3]): 30 to 60% |
| Oc1cc(O)cc(-c2cc3ccc(O)cc3o2)c1 [moracin M] | < 5% |  |  |  |  |  |
| Oc1ccc(/C=C2/c3cc(O)cc(O)c3[C@H](c3ccc(O)cc3)[C@H]2c2cc(O)cc(O)c2)cc1 [quadrangularin A] |  | showed an inhibitory effect | also active against MOS1 activities | better inhibitor of integration from unprocessed than from processed DNA | inhibited both activities | activity against MOS1 in transposition assay (Mos1 transposase (MOS1); 10 µM): still active; inhibition at 25 µM (Mos1 transposase (MOS1); 25 µM): > 50% |
| Cc1nnc(C(=O)NC(C)(C)c2nc(C(=O)NCc3ccc(F)cc3)c(O)c(=O)n2C)o1 [raltegravir, reference compound] |  | inhibition property than the selected compounds |  |  | always found better inhibitor than the selected compounds |  |
| Oc1ccc([C@H]2Oc3cc(O)cc(/C=C/c4ccc5c(c4)[C@@H](c4cc(O)cc6c4[C@H](c4cc(O)cc(O)c4)[C@@H](c4ccc(O)cc4)O6)[C@H](c4ccc(O)cc4)O5)c3[C@@H]2c2cc(O)cc(O)c2)cc1 [vitisin B, E-vitisin B] | < 5% |  |  |  |  | activity against MOS1 in transposition assay (Mos1 transposase (MOS1); 10 µM): still active; activity against MOS1 in transposition assay (Mos1 transposase (MOS1); 25 µM): active against MOS1 |
